Here are results for 19 compounds from ChEMBL document CHEMBL2069189, “Discovery of checkpoint kinase inhibitor (S)-5-(3-fluorophenyl)-N-(piperidin-3-yl)-3-ureidothiophene-2-carboxamide (AZD7762) by structure-based design and optimization of thiophenecarboxamide ureas” (J Med Chem, 2012).

Where only a bound is given, the exact number is not on record here.

Data set [1] deals with T1, Serine/threonine-protein kinase Chk1 (Homo sapiens, UniProt O14757).
T1 sequence (O14757 whole entry): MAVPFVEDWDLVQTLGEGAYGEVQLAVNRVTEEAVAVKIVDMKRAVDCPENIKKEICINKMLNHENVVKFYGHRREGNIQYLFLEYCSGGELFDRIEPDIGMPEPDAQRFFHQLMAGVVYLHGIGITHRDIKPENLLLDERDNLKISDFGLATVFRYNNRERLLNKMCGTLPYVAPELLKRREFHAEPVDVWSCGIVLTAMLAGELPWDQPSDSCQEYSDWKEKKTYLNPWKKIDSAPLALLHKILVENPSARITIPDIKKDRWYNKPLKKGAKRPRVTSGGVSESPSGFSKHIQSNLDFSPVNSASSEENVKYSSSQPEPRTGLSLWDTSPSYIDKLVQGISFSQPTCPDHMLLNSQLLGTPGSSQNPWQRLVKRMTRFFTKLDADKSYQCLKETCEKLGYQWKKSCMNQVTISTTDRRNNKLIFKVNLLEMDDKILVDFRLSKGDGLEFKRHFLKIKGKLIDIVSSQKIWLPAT
Nature of the data set: Inhibition of human recombinant CHK1 expressed in insect cells using biotinylaminohexanoyl-KKVSRSGLYRSPMPENLNRPR as substrate after 2 hrs by scintillation proximity assay. A general note: SPA uses beads or plates that emit light when radiolabelled molecules are held near them.

Data set [2] is described as follows: Fraction unbound in human plasma. It is filed as ADME, cell-free.
Data set [3] is described as follows: Lipophilicity, log D of the compound. The format is physicochemical. Particulars: octanol/water.
Data set [4] in a line: AUC in nude mouse. It is filed as ADME, organism-based. Conditions: plasma. Further details: concentration or dose not given beside the values.
Data set [5] in a line: Volume of distribution at steady state in nude mouse. Particulars: in vivo, read-out: Vdss. The format is ADME, organism-based.
Data set [6] can be described thus: Clearance in nude mouse. The format is ADME, organism-based. Particulars: in vivo.
Data set [7] in a line: Half life in nude mouse. The format is ADME, organism-based. Conditions: in vivo.
The nature of data set [8]: Clearance in rat. The format is ADME, organism-based. Particulars: in vivo.
Data set [9] can be described thus: Thermodynamic solubility of the compound in 0.1 M phosphate buffer at pH 7.4. It is filed as physicochemical. Conditions: read-out: Therm_solubility.
A short description of data set [10]: Half life in rat. Particulars: in vivo. It is filed as ADME, organism-based.
Data set [11] in a line: Clearance in dog. It is filed as ADME, organism-based, Canis lupus familiaris. Particulars: in vivo.
Data set [12] can be described thus: Half life in dog. The format is ADME, organism-based, Canis lupus familiaris. Particulars: in vivo.
For data set [13], the target named is Serine/threonine-protein kinase Chk2 (Homo sapiens, UniProt O96017). Put plainly: Inhibition of CHK2.
Sequence of Serine/threonine-protein kinase Chk2 (O96017 whole entry): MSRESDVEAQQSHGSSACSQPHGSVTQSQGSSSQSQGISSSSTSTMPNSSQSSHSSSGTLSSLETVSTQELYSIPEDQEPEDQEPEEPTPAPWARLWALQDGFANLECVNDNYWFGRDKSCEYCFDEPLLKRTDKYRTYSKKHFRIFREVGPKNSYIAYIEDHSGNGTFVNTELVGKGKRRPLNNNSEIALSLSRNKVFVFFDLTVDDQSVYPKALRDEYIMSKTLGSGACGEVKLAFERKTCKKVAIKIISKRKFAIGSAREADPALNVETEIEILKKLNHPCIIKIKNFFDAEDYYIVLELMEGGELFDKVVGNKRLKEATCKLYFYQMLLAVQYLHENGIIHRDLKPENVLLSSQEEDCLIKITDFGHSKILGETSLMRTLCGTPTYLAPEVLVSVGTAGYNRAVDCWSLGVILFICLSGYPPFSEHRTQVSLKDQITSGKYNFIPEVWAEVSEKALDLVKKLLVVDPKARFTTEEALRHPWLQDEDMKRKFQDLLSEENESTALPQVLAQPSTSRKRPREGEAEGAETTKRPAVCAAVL
Data set [14] deals with CYP450 (Homo sapiens, UniProt P04798+P05177+P05181+P08684+P10632+P10635+P11509+P11712+P13584+P20813+P20815+P20853+P24462+P24903+P33260+P33261+P51589+P78329+P98187+Q02928+Q08477+Q16678+Q16696+Q5TCH4+Q6VVX0+Q7Z449+Q8TAV3+Q96SQ9+Q9HB55). Nature of the data set: Inhibition of CYP450. The format is ADME.

In the case of `NC(=O)Nc1cc(-c2ccccc2)sc1C(=O)N[C@H]1CCCNC1`, the 50% inhibitory concentration (IC50) in data set [1] is 10 nM. This compound came in with a fraction unbound in data set [2] of 0.32. This compound returned a pH-dependent lipophilicity (logD) in data set [3] of 1.04.
For `NC(=O)Nc1cc(-c2ccccc2F)sc1C(=O)N[C@H]1CCCNC1`, the IC50 in [1] amounted to 20 nM.
`Cl.NC(=O)Nc1sc(-c2cccc(F)c2)cc1C(=O)N[C@H]1CCCNC1`: the AUC in data set [4] was found to be 3.8 µM·h. In addition, the Vd in data set [5] turned out to be 2.8 L/kg. This compound registered a clearance in data set [6] of 33 mL/min/kg. Moreover, the half-life in data set [7] was 1 h.
In the same order, the values of `Cl.NC(=O)Nc1sc(-c2ccc(F)cc2)cc1C(=O)N[C@H]1CCCNC1` are 1.5 µM·h, 6.1 L/kg, 81 mL/min/kg and 1.2 h.
Consider `Cl.NC(=O)Nc1cc(-c2ccc(F)cc2)sc1C(=O)N[C@H]1CCCNC1`, for which the exposure (AUC) in data set [4] was determined as 1.46 µM·h. In data set [1], the IC50 worked out at 6 nM. Besides, in [5], the Vd turned out to be 8.5 L/kg. This compound also registered a clearance in data set [6] of 86 mL/min/kg. The compound further had a half-life in data set [7] of 1.2 h.
In the case of `NC(=O)Nc1cc(-c2cccc(Cl)c2)sc1C(=O)N[C@H]1CCCNC1`, the IC50 in data set [1] was 8 nM.
Still for that read-out and setting: in the case of `NC(=O)Nc1sc(-c2cc(F)cc(F)c2)cc1C(=O)N[C@H]1CCCNC1` it was 12 nM; in that of `NC(=O)Nc1cc(-c2cc(F)cc(F)c2)sc1C(=O)N[C@H]1CCCNC1`, 10 nM.
Take `Cl.NC(=O)Nc1sc(-c2cccc(F)c2F)cc1C(=O)N[C@H]1CCCNC1`: in [4], the area under the curve (AUC) came to 1.7 µM·h. Further, the concentration for half-maximal inhibition (IC50) in data set [1] amounted to 11 nM. Moreover, in data set [5], the Vd came out at 4.5 L/kg. The compound further yielded a clearance in data set [6] of 71 mL/min/kg. The same compound had a half-life in data set [7] of 1.2 h.
The corresponding values for `Cl.NC(=O)Nc1cc(-c2cccc(F)c2F)sc1C(=O)N[C@H]1CCCNC1` are 1.4 µM·h, 20 nM, 7.7 L/kg, 85 mL/min/kg and 1.4 h.
Take `NC(=O)Nc1sc(-c2ccc(F)cc2F)cc1C(=O)N[C@H]1CCCNC1`: in data set [1], the IC50 was found to be 13 nM.
The same measure, in the same setting: in the case of `NC(=O)Nc1cc(-c2ccc(F)cc2F)sc1C(=O)N[C@H]1CCCNC1` it was 30 nM; in that of `NC(=O)Nc1sc(-c2ccc(Cl)c(Cl)c2)cc1C(=O)N[C@H]1CCCNC1`, 30 nM.
On the same count and under the same terms, under `NC(=O)Nc1cc(-c2ccc(Cl)c(Cl)c2)sc1C(=O)N[C@H]1CCCNC1` stands 40 nM; under `N#Cc1ccc(-c2cc(NC(N)=O)c(C(=O)N[C@H]3CCCNC3)s2)cc1`, 6 nM.
The same measure, in the same setting: in the case of `N#Cc1cccc(-c2cc(C(=O)N[C@H]3CCCNC3)c(NC(N)=O)s2)c1` it was 9 nM.
With `N#Cc1cccc(-c2cc(NC(N)=O)c(C(=O)N[C@H]3CCCNC3)s2)c1`, the IC50 in data set [1] is 7 nM.
In turn, `NC(=O)Nc1sc(-c2ccccc2)cc1C(=O)N[C@H]1CCCNC1` gave a fraction unbound in [2] of 0.077.
Take `NC(=O)Nc1cc(-c2cccc(F)c2)sc1C(=O)N[C@H]1CCCNC1` [AZD-7762]: the figures for the clearance in data set [8], in [11] and in [6] were 12.8 mL/min/kg, 35.7 mL/min/kg and 50 mL/min/kg, respectively. For the same compound, in [9], the solubility thermodynamic is > 1000 µM. The compound also came in with an AUC in data set [4] of 2.5 µM·h. For the same compound, the half-life is 5.2 h in data set [10], 1.5 h in data set [12] and 1.1 h in data set [7]. Moreover, the IC50 in data set [13] is < 10 nM; in data set [14], > 10000 nM. In addition, the Vd in data set [5] is 3.9 L/kg. In addition, in [2], the fraction unbound was determined as 0.26. Moreover, the logD in data set [3] turned out to be 1.2.

As a reminder, the IC50 is the concentration that inhibits the measured activity by half. The term fraction unbound denotes the share of the substance not bound to proteins or other matrix. One may read the logD as the decadic logarithm of the distribution of all forms, ionised or not, between an organic phase and buffer at a given pH. What is called AUC is the area under the concentration-time curve, a measure of exposure. As a reminder, the clearance is the rate of elimination divided by the concentration. For orientation: half-life means how long it takes for the measured level to halve.
